Laboratory results taken from patent publication US7071161B2, “Variants of corticotropin releasing hormone receptor Type 1 and uses thereof” (The University of Tennessee Research Corporation, priority 2001, dated 2006).

T1: CRH-R1α (Homo sapiens, UniProt P34998)
T1 construct: expressed in transfected cells; host or cells: COS cells, transient transfection with pCRFR1α
T1 sequence (P34998 24-415): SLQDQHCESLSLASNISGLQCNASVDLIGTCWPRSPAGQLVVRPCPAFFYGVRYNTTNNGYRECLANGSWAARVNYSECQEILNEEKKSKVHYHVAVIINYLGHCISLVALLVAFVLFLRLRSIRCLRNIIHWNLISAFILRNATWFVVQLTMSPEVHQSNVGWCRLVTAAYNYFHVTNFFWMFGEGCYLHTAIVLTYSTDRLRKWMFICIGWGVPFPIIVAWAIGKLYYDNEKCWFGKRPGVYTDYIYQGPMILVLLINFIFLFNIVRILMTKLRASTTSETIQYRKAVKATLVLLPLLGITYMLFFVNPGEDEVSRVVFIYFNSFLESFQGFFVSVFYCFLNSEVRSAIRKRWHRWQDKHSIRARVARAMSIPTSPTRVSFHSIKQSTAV

B1: CRH-R1h: human CRH receptor type 1 isoform with cryptic exon between exons 4 and 5; truncated protein with CRH-binding domain only (protein, listed as Homo sapiens)
chain: MGGHPQLRLVKALLLLGLNPVSASLQDQHCESLSLASNISGLQCNASVDLIGTCWPRSPAGQLVVRPCPAFFYGVRYNTTNNGYRECLANGSWAARVNYSECQEILNEEEPGTQAQPGRAHRGGT
modifications: amino acid sequence of human CRH-R1h gene GenBank Accession No. AF374231

Tests used:
CRH-R1 mRNA [1] = experiment: CRH-R1 isoform expression by nested RT-PCR in treated SKMEL188 melanoma cells; assay type: cell-based; settings: human melanoma cells SKMEL188; 24 hours; result in words
Experimental: (§1) In some experiments, SKMEL188, HaCaT and C4-1 cells were also treated with TPA, forskolin or a mixture of IBMX (3-isobutyl-1-methylxanthine) and dbcAMP (N6, 2′-O-dibutyryladenosine 3′:5′-cyclic monophosphate sodium) (all from Sigma). Briefly, the cells were transferred to 75 cm^2 flasks ( 10^6 cells/flask) and cultured for 24 hours in standard culture medium. Then the following compounds were added to the separate cultures: TPA (200 nM), forskolin (10^−5 M), IBMX (5×10^−4 M), and dbcAMP (10^−3 M). Controls were represented by untreated cultures. The cells were incubated for 24 hours, detached, collected by centrifugation, and dissolved in RNA isolation solution (Trizol reagent).
(§2) Total RNA was extracted using a Trizol isolation kit (Gibco-BRL, Gaithersburg, Md.). The synthesis of first-strand cDNA was performed using the Superscript preamplification system (Gibco-BRL). Five μg of total RNA per reaction was reverse transcribed using oligo(dT) as the primer.
(§3) Nested PCR was used to detect different CRH-R1 isoforms. The first round of amplification of the human CRH-R1 fragment spanning exons 2–7 was conducted using 2 μl of cDNA and primers P110: 5′-[…]-3′ (sense) (SEQ ID No. 15) and P111: 5′-[…]-3′ (antisense) (SEQ ID No. 16). An aliquot of the PCR mixture from the first round of amplification was transferred to a new tube, and a second round of PCR was conducted. […]

CRH-R1 mRNA [2] = experiment: CRH-R1 isoform expression by nested RT-PCR in treated HaCaT immortalized keratinocytes; assay type: cell-based, human; settings: 24 hours, result in words
Experimental: as §1, §2, §3

CRH-R1α = target: T1, CRH-R1α; experiment: cAMP accumulation in CRF or urocortin-stimulated COS cells cotransfected with CRH-R1α and isoform e or h; assay type: cell-based; settings: coexpression of the isoform with CRH-R1α, FIG. 7C
Experimental: COS cells were propagated in DMEM medium (GIBCO) supplemented with 10% Fetal Bovine serum and antibiotics (GIBCO). Ten thousand cells were routinely transfected in each well of opaque 96-well plate (Packard) by Lipophectamine (Invitrogen, Carlsbad, Calif.) according to the manufacturer's protocol.
Receptor isoforms e and h were tested for their ability to produce soluble forms of the CRH receptor that would affect the activity of the most prevalent CRH-R1α isoform. To allow detection by immunoblotting, a cDNA for the V5 protein was attached to the cDNA for the isoforms in the constructs. The constructs were thus transfected into COS cells and tested as to whether the isoform messages were translatable, and whether cotransfection of CRH-R1α with CRH-R1e or h affects the activity of CRH-R1α.
Cyclic AMP concentration was measured by a cAMP functional assay kit (Packard BioScience, Meriden, Conn.). Stimulated cells were washed 3 times by PBS and incubated for 1 hour in 25 μl of lysis buffer at room temperature. The signal was measured using a Fusion α instrument (Packard BioScience), and cAMP concentrations were recalculated from the standard curve.

| Molecule | change of CRH-R1 splicing pattern versus untreated control (CRH-R1 mRNA [1]) | change of CRH-R1 splicing pattern versus untreated control (CRH-R1 mRNA [2]) | CRH or urocortin-stimulated cAMP accumulation mediated by CRF-R1α (CRH-R1α) | CRH or urocortin-stimulated cAMP accumulation mediated by CRF-R1α (CRH-R1α; listed as CRF-R1h) |
| --- | --- | --- | --- | --- |
| CCCCCCCCCCCCCC(=O)O[C@@H]1[C@@H](C)[C@@]2(O)[C@@H](C=C(CO)C[C@]3(O)C(=O)C(C)=C[C@@H]23)[C@@H]2C(C)(C)[C@]12OC(C)=O [TPA, phorbol 12-myristate 13-acetate] | shifted the CRH-R1 splicing pattern from the CRH-R1d to the CRH-R1α isoform | induced insertion of a 110 bp fragment between exons 4 and 5 of CRH-R1 | – | – |
| B1 | – | – | inhibits | stimulates |
